The values that follow come from article PMC10141620 (Viruses, 2023).

What all share (assay type): cell-based
Assay [1] has as its system SARS-CoV-2 USA-WA1/2020 D614G pseudovirus.
Assay [2] has as its system SARS-CoV-2 Brazil (Gamma: K417T/E484K/N501Y) pseudovirus.
In assay [3] the test system is SARS-CoV-2 mutant (D614G) and variants of concern (VOC) pseudoviruses. The following applies: read-out: IC50, range over all variant pseudoviruses.

Where “and” joins values, the source holds several entries; their conditions need not be identical. Identical values can stand only once.

With `Cc1ccc2nc3s/c(=C/c4coc(-c5ccc(Cl)c(C(=O)O)c5)c4)c(=O)n3c2c1` [NBCoV35], the IC50 (in general, the midpoint of a concentration-inhibition curve) in assay [1] is 266 nM and 195 nM; in assay [2], 292 nM and 506 nM.
For the compound `O=C(O)c1cc(-c2ccc(/C=c3\sc4nc(=O)c5c6c(sc5n4c3=O)CCCC6)o2)ccc1Cl` [NBCoV36], the IC50 in assay [3] is 181 to 1180 nM and 129 to 332 nM.
On to `Cc1cc(C)c2nc3s/c(=C\c4ccc(-c5ccc(Cl)c(C(=O)O)c5)o4)c(=O)n3c2c1` [NBCoV37], for which the IC50 in assay [1] is 311 nM and 157 nM; in assay [3], 82 to 267 nM and 42.5 to 311 nM.
For the compound `Cc1cc2nc3s/c(=C/c4ccc(-c5cccc(C(=O)O)c5)o4)c(=O)n3c2cc1C` [NBCoV63], the IC50 is 42.5 nM and 40.8 nM in assay [1]; 45.5 nM and 77.5 nM in assay [2]; 34 to 96 nM and 26 to 105 nM in assay [3].
